Results published in PubChem BioAssay (NCI).
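Protocol summary: plate cells (96-well), add compound at 5 concentrations, incubate 48 h, interpolate endpoints linearly. At the GI50, growth is halved. TGI: total growth inhibition.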

What was measured:
Assay in all cases: NCI tumour cell line growth inhibition, 48 h
HL-60(TB) leukemia = test system: HL-60(TB) leukemia
U251 CNS = test system: U251 CNS
MDA-MB-435 = test system: MDA-MB-435
SNB-19 CNS = test system: SNB-19 CNS
DU-145 prostate = test system: DU-145 prostate
CAKI-1 renal = test system: CAKI-1 renal
UACC-62 melanoma = test system: UACC-62 melanoma
IGROV1 ovarian = test system: IGROV1 ovarian
RPMI-8226 leukemia = test system: RPMI-8226 leukemia
UACC-257 melanoma = test system: UACC-257 melanoma
LOX IMVI melanoma = test system: LOX IMVI melanoma
NCI-H522 lung = test system: NCI-H522 lung
HOP-62 NSCLC = test system: HOP-62 NSCLC
OVCAR-5 ovarian = test system: OVCAR-5 ovarian
HT29 colon = test system: HT29 colon
UO-31 renal = test system: UO-31 renal
HCC-2998 colon = test system: HCC-2998 colon
MOLT-4 leukemia = test system: MOLT-4 leukemia
HCT-15 colon = test system: HCT-15 colon
A498 renal = test system: A498 renal
EKVX NSCLC = test system: EKVX NSCLC
K-562 leukemia = test system: K-562 leukemia
SF-295 CNS = test system: SF-295 CNS
NCI-H460 lung = test system: NCI-H460 lung
M14 melanoma = test system: M14 melanoma
TK-10 renal = test system: TK-10 renal
MALME-3M melanoma = test system: MALME-3M melanoma
SK-MEL-28 melanoma = test system: SK-MEL-28 melanoma
ACHN renal = test system: ACHN renal
SK-MEL-5 melanoma = test system: SK-MEL-5 melanoma
SN12C renal = test system: SN12C renal
OVCAR-3 ovarian = test system: OVCAR-3 ovarian
MDA-MB-231 breast = test system: MDA-MB-231 breast
OVCAR-4 ovarian = test system: OVCAR-4 ovarian
SF-268 CNS = test system: SF-268 CNS
OVCAR-8 ovarian = test system: OVCAR-8 ovarian
SNB-75 CNS = test system: SNB-75 CNS
BT-549 breast = test system: BT-549 breast
A549 NSCLC = test system: A549 NSCLC
MCF7 breast = test system: MCF7 breast
T-47D breast = test system: T-47D breast
HS 578T breast = test system: HS 578T breast
NCI-H23 lung = test system: NCI-H23 lung
SK-MEL-2 melanoma = test system: SK-MEL-2 melanoma
KM12 colon = test system: KM12 colon
SF-539 CNS = test system: SF-539 CNS
CCRF-CEM leukemia = test system: CCRF-CEM leukemia
HOP-92 NSCLC = test system: HOP-92 NSCLC
NCI/ADR-RES ovarian = test system: NCI/ADR-RES ovarian
SW-620 colon = test system: SW-620 colon
HCT-116 colon = test system: HCT-116 colon
PC-3 prostate = test system: PC-3 prostate
SR leukemia = test system: SR leukemia
RXF 393 renal = test system: RXF 393 renal
786-0 renal = test system: 786-0 renal
NCI-H226 lung = test system: NCI-H226 lung
COLO 205 colon = test system: COLO 205 colon

SMILES: Cc1nc([P+](c2ccccc2)(c2ccccc2)c2ccccc2)c(Sc2sc(-c3ccccc3)nc2[P+](c2ccccc2)(c2ccccc2)c2ccccc2)o1
- GI50 (HL-60(TB) leukemia): 1.39 µM
- TGI (HL-60(TB) leukemia): 4 µM
- GI50 (U251 CNS): 0.344 µM
- TGI (U251 CNS): 4.03 µM
- GI50 (MDA-MB-435): 1.19 µM
- TGI (MDA-MB-435): 3.46 µM
- GI50 (SNB-19 CNS): 1.6 µM
- TGI (SNB-19 CNS): 12.2 µM
- GI50 (DU-145 prostate): 1.22 µM
- TGI (DU-145 prostate): 4.96 µM
- GI50 (CAKI-1 renal): 2.69 µM
- TGI (CAKI-1 renal): 9.71 µM
- GI50 (UACC-62 melanoma): 1.51 µM
- TGI (UACC-62 melanoma): 3.67 µM
- GI50 (IGROV1 ovarian): 1.4 µM
- TGI (IGROV1 ovarian): 4.83 µM
- GI50 (RPMI-8226 leukemia): 0.27 µM
- TGI (RPMI-8226 leukemia): 1.25 µM
- GI50 (UACC-257 melanoma): 2 µM
- TGI (UACC-257 melanoma): 8.81 µM
- GI50 (LOX IMVI melanoma): 1.82 µM
- TGI (LOX IMVI melanoma): 5.71 µM
- GI50 (NCI-H522 lung): 1.43 µM
- TGI (NCI-H522 lung): 6.15 µM
- GI50 (HOP-62 NSCLC): 2.08 µM
- TGI (HOP-62 NSCLC): 13.2 µM
- GI50 (OVCAR-5 ovarian): 2.29 µM
- TGI (OVCAR-5 ovarian): 8.53 µM
- GI50 (HT29 colon): 0.861 µM
- TGI (HT29 colon): 10.6 µM
- GI50 (UO-31 renal): 1.81 µM
- TGI (UO-31 renal): 5.99 µM
- GI50 (HCC-2998 colon): 2 µM
- TGI (HCC-2998 colon): 6.22 µM
- GI50 (MOLT-4 leukemia): 1.8 µM
- TGI (MOLT-4 leukemia): 6.15 µM
- GI50 (HCT-15 colon): 2.15 µM
- TGI (HCT-15 colon): 7.68 µM
- GI50 (A498 renal): 1.5 µM
- TGI (A498 renal): 4.68 µM
- GI50 (EKVX NSCLC): 1.1 µM
- TGI (EKVX NSCLC): 5.64 µM
- GI50 (K-562 leukemia): 0.368 µM
- TGI (K-562 leukemia): 5.9 µM
- GI50 (SF-295 CNS): 2.24 µM
- TGI (SF-295 CNS): 6.77 µM
- GI50 (NCI-H460 lung): 1.13 µM
- TGI (NCI-H460 lung): 2.8 µM
- GI50 (M14 melanoma): 1.21 µM
- TGI (M14 melanoma): 5.3 µM
- GI50 (TK-10 renal): 2.09 µM
- TGI (TK-10 renal): 7.63 µM
- GI50 (MALME-3M melanoma): 1.36 µM
- TGI (MALME-3M melanoma): 7.13 µM
- GI50 (SK-MEL-28 melanoma): 1.99 µM
- TGI (SK-MEL-28 melanoma): 10.5 µM
- GI50 (ACHN renal): 1.65 µM
- TGI (ACHN renal): 4.92 µM
- GI50 (SK-MEL-5 melanoma): 1.48 µM
- TGI (SK-MEL-5 melanoma): 2.85 µM
- GI50 (SN12C renal): 1.72 µM
- TGI (SN12C renal): 6.88 µM
- GI50 (OVCAR-3 ovarian): 0.76 µM
- TGI (OVCAR-3 ovarian): 3.29 µM
- GI50 (MDA-MB-231 breast): 1.86 µM
- TGI (MDA-MB-231 breast): 6.27 µM
- GI50 (OVCAR-4 ovarian): 0.952 µM
- TGI (OVCAR-4 ovarian): 5.82 µM
- GI50 (SF-268 CNS): 2.02 µM
- TGI (SF-268 CNS): 7.71 µM
- GI50 (OVCAR-8 ovarian): 0.867 µM
- TGI (OVCAR-8 ovarian): 11.6 µM
- GI50 (SNB-75 CNS): 1.11 µM
- TGI (SNB-75 CNS): 4.31 µM
- GI50 (BT-549 breast): 1.28 µM
- TGI (BT-549 breast): 6.24 µM
- GI50 (A549 NSCLC): 1.87 µM
- TGI (A549 NSCLC): 10.7 µM
- GI50 (MCF7 breast): 0.669 µM
- TGI (MCF7 breast): 4.81 µM
- GI50 (T-47D breast): 0.327 µM
- TGI (T-47D breast): 8.81 µM
- GI50 (HS 578T breast): 1.22 µM
- TGI (HS 578T breast): 5.32 µM
- GI50 (NCI-H23 lung): 1.99 µM
- TGI (NCI-H23 lung): 5.92 µM
- GI50 (SK-MEL-2 melanoma): 2.15 µM
- TGI (SK-MEL-2 melanoma): 4.92 µM
- GI50 (KM12 colon): 1.39 µM
- TGI (KM12 colon): 3.35 µM
- GI50 (SF-539 CNS): 2.3 µM
- TGI (SF-539 CNS): 7.34 µM
- GI50 (CCRF-CEM leukemia): 0.959 µM
- TGI (CCRF-CEM leukemia): 9.4 µM
- GI50 (HOP-92 NSCLC): 0.759 µM
- TGI (HOP-92 NSCLC): 3.73 µM
- GI50 (NCI/ADR-RES ovarian): 3.7 µM
- TGI (NCI/ADR-RES ovarian): 19.8 µM
- GI50 (SW-620 colon): 0.637 µM
- TGI (SW-620 colon): 2.85 µM
- GI50 (HCT-116 colon): 0.896 µM
- TGI (HCT-116 colon): 2.94 µM
- GI50 (PC-3 prostate): 1.04 µM
- TGI (PC-3 prostate): 2.72 µM
- GI50 (SR leukemia): 0.372 µM
- TGI (SR leukemia): 17.2 µM
- GI50 (RXF 393 renal): 1.78 µM
- TGI (RXF 393 renal): 5.26 µM
- GI50 (786-0 renal): 2.34 µM
- TGI (786-0 renal): 11.2 µM

SMILES: O=C(O)CN1C=C(C(=O)c2cc3ccccc3n2S(=O)(=O)c2ccccc2)CCC1
- TGI (HL-60(TB) leukemia): 71.5 µM
- TGI (U251 CNS): > 100 µM
- TGI (MDA-MB-435): > 100 µM
- TGI (NCI-H226 lung): > 100 µM
- TGI (SNB-19 CNS): > 100 µM
- TGI (DU-145 prostate): > 100 µM
- TGI (CAKI-1 renal): > 100 µM
- TGI (UACC-62 melanoma): > 100 µM
- TGI (IGROV1 ovarian): > 100 µM
- TGI (COLO 205 colon): 42.5 µM
- TGI (UACC-257 melanoma): > 100 µM
- TGI (LOX IMVI melanoma): > 100 µM
- TGI (HOP-62 NSCLC): > 100 µM
- TGI (OVCAR-5 ovarian): > 100 µM
- TGI (HT29 colon): > 100 µM
- TGI (UO-31 renal): > 100 µM
- TGI (HCC-2998 colon): > 100 µM
- TGI (MOLT-4 leukemia): > 100 µM
- TGI (HCT-15 colon): > 100 µM
- TGI (A498 renal): > 100 µM
- TGI (EKVX NSCLC): > 100 µM
- TGI (K-562 leukemia): > 100 µM
- TGI (SF-295 CNS): > 100 µM
- TGI (NCI-H460 lung): > 100 µM
- TGI (M14 melanoma): > 100 µM
- TGI (TK-10 renal): > 100 µM
- TGI (MALME-3M melanoma): > 100 µM
- TGI (SK-MEL-28 melanoma): > 100 µM
- TGI (ACHN renal): > 100 µM
- TGI (SK-MEL-5 melanoma): 71.8 µM
- TGI (OVCAR-3 ovarian): > 100 µM
- TGI (MDA-MB-231 breast): > 100 µM
- TGI (OVCAR-4 ovarian): > 100 µM
- TGI (SF-268 CNS): > 100 µM
- TGI (OVCAR-8 ovarian): > 100 µM
- TGI (SNB-75 CNS): > 100 µM
- TGI (BT-549 breast): > 100 µM
- TGI (A549 NSCLC): > 100 µM
- TGI (MCF7 breast): > 100 µM
- TGI (T-47D breast): > 100 µM
- TGI (HS 578T breast): > 100 µM
- TGI (NCI-H23 lung): > 100 µM
- TGI (SK-MEL-2 melanoma): > 100 µM
- TGI (KM12 colon): > 100 µM
- TGI (SF-539 CNS): > 100 µM
- TGI (CCRF-CEM leukemia): > 100 µM
- TGI (HOP-92 NSCLC): > 100 µM
- TGI (NCI/ADR-RES ovarian): > 100 µM
- TGI (SW-620 colon): > 100 µM
- TGI (HCT-116 colon): > 100 µM
- TGI (PC-3 prostate): > 100 µM
- TGI (SR leukemia): > 100 µM
- TGI (RXF 393 renal): > 100 µM
- TGI (786-0 renal): > 100 µM
